From patent publication US20250059198A1, “BRM DEGRADING COMPOUNDS AND ASSOCIATED METHODS OF USE” (Arvinas Operations, Inc., priority 2021, published 2025)

Target: T1, BRM (Homo sapiens, UniProt P51531)
T1 construct: Western Blot Screen of BRM Degradation in SW1573 Cells; endogenous in cells; host or cells: SW1573 cells
Assay: BRM degradation (Dmax and DC50) in SW1573 cells, Western blot screen / In-Cell Western screen
Format: cell-based
Settings: overnight (18-20 hours) treatment; for Dmax: read-out: Dmax (%)** (% degraded)
Experimental: (§1) To assess BRM degradation (Dmax and DC50) cells were seeded at 8000/well in 96-well black/clear-bottom plates in 180 μL DMEM growth media (containing 1% pen-strep, 1% HEPES and 10% FBS) per well. Plates were incubated overnight to allow adhesion. The next morning cells were treated by adding 20 μL of 10× target compound concentration (1% DMSO) to appropriate wells and returned to incubator for overnight (18-20 hours). The final DMSO concentration was 0.1%.
For lysing, adherent cells were washed once with 100 μL of DPBS. Cells were lysed in 40 μL of 1×RIPA+HALT protease inhibitor on ice for 10 minutes and frozen until use at −80° C. Thawed lysates were cleaned by filtration in 1.2 µm filter plates, or alternatively, were spun clean at 2300 g at 4° C. for 30 minutes.
For blotting, for each Western sample 30 μL of lysate was added to 10 μL of 4× LDS sample buffer, then denatured at 95° C. for 5 minutes in the thermal cycler and placed on ice. Samples were loaded on 4-15% Tris/Glycine gels and run for 25 minutes at 250 constant volts in 1× Tris/Glycine buffer with 4 μL of ladder and 12 μL of each sample loaded for each blot. Protein was transferred from gels to NC with BioRad Turbo dry-transfer unit with the Turbo/midi default program. All blots were rinsed with ddH2O and blocked for 1 hour at room temperature in 5% BSA in TBST (0.1%) on rocker. Blots were exposed to primary antibody in 5% BSA in TBST (0.1%) overnight at 4° C. on rocker (1:1000 for BRM (Cell Signaling Tech. cat #11966) and 1:2000 for alpha-tubulin (Cell Signaling Tech. cat #3873), a control protein. Blot was washed with TBST (0.1%) three times for 5 minutes on rocker at room temperature. Secondary antibody was added, and blots were incubated on a room temperature rocker for 1 hour with 1:18,000 anti-rabbit-HRP and/or anti-mouse-HRP in 5% BSA in TBST (0.1%). Blots were washed three times in TBST (0.1%) for 5 minutes at room temperature on the rocker. Signal was developed with Femto Maximum Sensitivity substrate for 4 minutes and blots read on ChemiDoc™.
as §1, with “DC50),” for “DC50)”, “10×” for “10× target”, “compound” for “compound concentration”
For processing, the plates were removed from incubator, the media was removed, and immediately 200 μL of cold (4° C.) DPBS was added to all wells. DPBS was then removed, and 50 μL of 4% paraformaldehyde (PFA) in DPBS (4° C.) was added to all wells, and the plates were incubated at room temperature for 20 minutes. PFA was then removed, and 200 μL of TBS-T containing 0.5% Triton X-100 was added to all wells, and the plates were incubated at room temperature for 30 minutes. TBS-T containing 0.5% Triton X-100 was then removed, and 50 μL of Li-Cor blocking solution was added, and the plates were incubated at room temperature for a minimum of one hour. The blocking solution was removed, and 50 μL of Li-Cor blocking solution containing primary antibody cocktail was added (1:1000 for BRM (Cell Signaling Tech. cat #11966) and 1:2000 for alpha-tubulin (Sigma cat #T6074), a control protein. Plates were then placed in cold room until the next day.
The next day plates were washed three times with TBS-T, 200 μL per well. Fifty […] of secondary antibody cocktail in LI-COR blocking solution (anti-rabbit_800 nm and anti-mouse_680 nm) was added to all wells (diluted 1:5000). The plates were incubated at room temperature for at least one hour while protected from light. The plates were washed twice with TBS-T, 200 μL per well.
To read each plate TBS-T was removed, and each plate was inverted tapped on a paper towel. […]

T1 sequence (P51531 whole entry): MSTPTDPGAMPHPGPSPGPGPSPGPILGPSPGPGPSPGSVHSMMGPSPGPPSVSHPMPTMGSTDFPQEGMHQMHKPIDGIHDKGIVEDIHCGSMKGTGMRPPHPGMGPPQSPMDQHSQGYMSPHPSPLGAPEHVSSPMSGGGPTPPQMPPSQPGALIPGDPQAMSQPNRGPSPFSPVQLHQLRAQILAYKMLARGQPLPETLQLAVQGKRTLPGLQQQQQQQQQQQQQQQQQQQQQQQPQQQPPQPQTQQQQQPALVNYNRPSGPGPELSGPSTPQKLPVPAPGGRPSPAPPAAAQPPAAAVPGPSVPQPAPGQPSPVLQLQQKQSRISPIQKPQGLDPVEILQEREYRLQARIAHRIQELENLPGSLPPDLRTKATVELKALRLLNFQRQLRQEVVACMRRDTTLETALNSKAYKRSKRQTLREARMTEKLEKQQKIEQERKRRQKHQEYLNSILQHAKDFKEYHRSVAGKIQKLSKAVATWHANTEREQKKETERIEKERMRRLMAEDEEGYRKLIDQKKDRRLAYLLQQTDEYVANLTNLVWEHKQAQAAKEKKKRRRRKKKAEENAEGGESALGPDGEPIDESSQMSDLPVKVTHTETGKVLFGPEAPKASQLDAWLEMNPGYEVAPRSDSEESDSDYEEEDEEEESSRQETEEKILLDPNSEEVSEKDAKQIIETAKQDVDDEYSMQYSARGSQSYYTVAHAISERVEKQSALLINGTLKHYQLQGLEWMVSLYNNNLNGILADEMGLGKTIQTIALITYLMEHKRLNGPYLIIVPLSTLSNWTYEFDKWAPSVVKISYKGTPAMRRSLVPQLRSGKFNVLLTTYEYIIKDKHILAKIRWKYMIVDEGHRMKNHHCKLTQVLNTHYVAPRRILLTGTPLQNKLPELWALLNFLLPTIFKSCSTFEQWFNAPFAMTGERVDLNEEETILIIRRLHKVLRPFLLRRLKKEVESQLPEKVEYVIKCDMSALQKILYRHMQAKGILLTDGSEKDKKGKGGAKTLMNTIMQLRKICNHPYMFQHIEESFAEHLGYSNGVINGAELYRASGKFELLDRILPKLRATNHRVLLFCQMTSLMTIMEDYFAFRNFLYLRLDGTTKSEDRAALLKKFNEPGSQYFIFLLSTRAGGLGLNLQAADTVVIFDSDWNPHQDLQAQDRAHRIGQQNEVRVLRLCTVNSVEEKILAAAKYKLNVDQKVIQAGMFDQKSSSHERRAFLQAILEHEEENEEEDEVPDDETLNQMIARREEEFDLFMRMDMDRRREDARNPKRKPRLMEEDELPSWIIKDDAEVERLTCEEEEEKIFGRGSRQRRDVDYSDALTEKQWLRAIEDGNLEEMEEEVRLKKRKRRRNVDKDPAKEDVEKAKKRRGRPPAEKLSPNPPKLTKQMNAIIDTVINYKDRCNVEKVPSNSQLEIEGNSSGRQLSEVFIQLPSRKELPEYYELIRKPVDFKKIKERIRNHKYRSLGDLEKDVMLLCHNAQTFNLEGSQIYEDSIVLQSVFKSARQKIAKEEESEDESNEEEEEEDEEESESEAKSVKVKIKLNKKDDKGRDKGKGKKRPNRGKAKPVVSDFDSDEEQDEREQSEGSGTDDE

Row | SMILES | DC50 | Dmax
1 | Cc1ncsc1-c1ccc([C@H](C)NC(=O)[C@@H]2C[C@@H](O)CN2C(=O)[C@@H](c2cc(N3CCC(CN4CC[C@H](OC(=O)N5CCN(c6cc(-c7ccccc7O)nnc6N)CC5)[C@H](F)C4)CC3)no2)C(C)C)cc1 [Compound 103, (3R,4S)-3-fluoro-1-[(1-{5-[(2R)-1-[(2S,4R)-4-hydroxy-2-{[(1S)-1-[4-(4-methyl-1,3-thiazol-5-yl)phenyl]ethyl]carbamoyl}pyrrolidin-1-yl]-3-methyl-1-oxobutan-2-yl]-1,2-oxazol-3-yl}piperidin-4-yl)methyl]piperidin-4-yl 4-[3-amino-6-(2-hydroxyphenyl)pyridazin-4-yl]piperazine-1-carboxylate] | < 2.5 nM | > 75%
2 | Cc1ncsc1-c1ccc([C@H](C)NC(=O)[C@@H]2C[C@@H](O)CN2C(=O)[C@@H](c2cc(N3CCC(CN4CCC(O[C@H]5C[C@H](N6CCC([C@H](C)c7cnn(-c8cc(-c9ccccc9O)nnc8N)c7)CC6)C5)CC4)CC3)no2)C(C)C)cc1 [Compound 75, (2S,4R)-4-hydroxy-N-[(1S)-1-[4-(4-methyl-1,3-thiazol-5-yl)phenyl]ethyl]-1-[(2R)-3-methyl-2-{3-[4-({4-[(1r,3r)-3-{4-[(1S)-1-{1-[3-amino-6-(2-hydroxyphenyl)pyridazin-4-yl]-1H-pyrazol-4-yl}ethyl]piperidin-1-yl}cyclobutoxy]piperidin-1-yl}methyl)piperidin-1-yl]-1,2-oxazol-5-yl}butanoyl]pyrrolidine-2-carboxamide] | < 2.5 nM | > 75%
3 | Cc1ncsc1-c1ccc([C@H](C)NC(=O)[C@@H]2C[C@@H](O)CN2C(=O)[C@@H](c2cc(N3CCC(CN4CCC5(CC4)CC(N4CCN(C)[C@@H](CN6C7CCC6CN(c6cc(-c8ccccc8O)nnc6N)C7)C4)C5)CC3)no2)C(C)C)cc1 [Compound 133, (2S,4R)-1-[(2R)-2-{3-[4-({2-[(3R)-3-({3-[3-amino-6-(2-hydroxyphenyl)pyridazin-4-yl]-3,8-diazabicyclo[3.2.1]octan-8-yl}methyl)-4-methylpiperazin-1-yl]-7-azaspiro[3.5]nonan-7-yl}methyl)piperidin-1-yl]-1,2-oxazol-5-yl}-3-methylbutanoyl]-4-hydroxy-N-[(1S)-1-[4-(4-methyl-1,3-thiazol-5-yl)phenyl]ethyl]pyrrolidine-2-carboxamide] | < 2.5 nM | > 75%
4 | Cc1ncsc1-c1ccc([C@H](C)NC(=O)[C@@H]2C[C@@H](O)CN2C(=O)[C@@H](c2cc(N3CCC(CN4CCC(O[C@H]5C[C@H](N6CCC(C(C)(C)N7C8CCC7CN(c7cc(-c9ccccc9O)nnc7N)C8)CC6)C5)CC4)CC3)no2)C(C)C)cc1 [Compound 22, (2S,4R)-4-hydroxy-N-[(1S)-1-[4-(4-methyl-1,3-thiazol-5-yl)phenyl]ethyl]-1-[(2R)-3-methyl-2-{3-[4-({4-[(1r,3r)-3-[4-(2-{3-[3-amino-6-(2-hydroxyphenyl)pyridazin-4-yl]-3,8-diazabicyclo[3.2.1]octan-8-yl}propan-2-yl)piperidin-1-yl]cyclobutoxy]piperidin-1-yl}methyl)piperidin-1-yl]-1,2-oxazol-5-yl}butanoyl]pyrrolidine-2-carboxamide] | < 2.5 nM | > 75%
5 | CC(C)C(C(=O)N1C[C@H](O)C[C@H]1C(=O)N[C@@H](C)c1ccc(-c2ccnn2C)cc1)c1cc(OCC#Cc2ncc(O[C@H]3C[C@H](Oc4cc(N5CCN(c6cc(-c7ccccc7O)nnc6N)CC5)ccn4)C3)cn2)no1 (stereo partly drawn) [Compound 34, (2S,4R)-4-hydroxy-N-[(1S)-1-[4-(1-methyl-1H-pyrazol-5-yl)phenyl]ethyl]-1-(3-methyl-2-{3-[(3-{5-[(1r,3r)-3-[(4-{4-[3-amino-6-(2-hydroxyphenyl)pyridazin-4-yl]piperazin-1-yl}pyridin-2-yl)oxy]cyclobutoxy]pyrimidin-2-yl}prop-2-yn-1-yl)oxy]-1,2-oxazol-5-yl}butanoyl)pyrrolidine-2-carboxamide] | < 2.5 nM | > 75%
6 | Cc1ncsc1-c1ccc([C@H](C)NC(=O)[C@@H]2C[C@@H](O)CN2C(=O)[C@@H](c2cc(N3CCC(CN4CCC(O[C@H]5C[C@H](N6CCO[C@H](CN7C8CCC7CN(c7cc(-c9ccccc9O)nnc7N)C8)C6)C5)CC4)CC3)no2)C(C)C)cc1 [Compound 23, (2S,4R)-4-hydroxy-N-[(1S)-1-[4-(4-methyl-1,3-thiazol-5-yl)phenyl]ethyl]-1-[(2R)-3-methyl-2-{3-[4-({4-[(1r,3r)-3-[(2S)-2-({3-[3-amino-6-(2-hydroxyphenyl)pyridazin-4-yl]-3,8-diazabicyclo[3.2.1]octan-8-yl}methyl)morpholin-4-yl]cyclobutoxy]piperidin-1-yl}methyl)piperidin-1-yl]-1,2-oxazol-5-yl}butanoyl]pyrrolidine-2-carboxamide] | < 2.5 nM | > 75%
7 | Cc1ncsc1-c1ccc([C@H](C)NC(=O)[C@@H]2C[C@@H](O)CN2C(=O)[C@@H](c2cc(N3CCC(CN4CCC5(CC4)CC(N4CCOC6(CC(CN7C8CCC7CN(c7cc(-c9ccccc9O)nnc7N)C8)C6)C4)C5)CC3)no2)C(C)C)cc1 [Compound 126, (2S,4R)-1-[(2R)-2-{3-[4-({2-[2-({3-[3-amino-6-(2-hydroxyphenyl)pyridazin-4-yl]-3,8-diazabicyclo[3.2.1]octan-8-yl}methyl)-5-oxa-8-azaspiro[3.5]nonan-8-yl]-7-azaspiro[3.5]nonan-7-yl}methyl)piperidin-1-yl]-1,2-oxazol-5-yl}-3-methylbutanoyl]-4-hydroxy-N-[(1S)-1-[4-(4-methyl-1,3-thiazol-5-yl)phenyl]ethyl]pyrrolidine-2-carboxamide] | 2.5 to 10 nM | > 75%
8 | CC(C)[C@@H](C(=O)N1C[C@H](O)C[C@H]1C(=O)N[C@@H](C)c1ccc(-c2ccnn2C)cc1)c1cc(N2CCC(CN3CCC(O[C@H]4C[C@H](Oc5cc(/C=C(\F)c6cc(-c7ccccc7O)nnc6N)ccn5)C4)CC3)CC2)no1 [Compound 51, (2S,4R)-4-hydroxy-N-[(1S)-1-[4-(1-methyl-1H-pyrazol-5-yl)phenyl]ethyl]-1-[(2R)-3-methyl-2-{3-[4-({4-[(1r,3r)-3-[(4-{2-[3-amino-6-(2-hydroxyphenyl)pyridazin-4-yl]-2-fluoroethenyl}pyridin-2-yl)oxy]cyclobutoxy]piperidin-1-yl}methyl)piperidin-1-yl]-1,2-oxazol-5-yl}butanoyl]pyrrolidine-2-carboxamide] | < 2.5 nM | > 75%
9 | Cc1ncsc1-c1ccc([C@H](C)NC(=O)[C@@H]2C[C@@H](O)CN2C(=O)[C@@H](c2cc(N3CCC(CN4CCC5(CC4)CC(N4CCC[C@](O)(CN6C7CCC6CN(c6cc(-c8ccccc8O)nnc6N)C7)C4)C5)CC3)no2)C(C)C)cc1 [Compound 61, (2S,4R)-1-[(2R)-2-{3-[4-({2-[(3R)-3-({3-[3-amino-6-(2-hydroxyphenyl)pyridazin-4-yl]-3,8-diazabicyclo[3.2.1]octan-8-yl}methyl)-3-hydroxypiperidin-1-yl]-7-azaspiro[3.5]nonan-7-yl}methyl)piperidin-1-yl]-1,2-oxazol-5-yl}-3-methylbutanoyl]-4-hydroxy-N-[(1S)-1-[4-(4-methyl-1,3-thiazol-5-yl)phenyl]ethyl]pyrrolidine-2-carboxamide] | < 2.5 nM | > 75%
